Test results taken from patent US8415342B2, “Besifloxacin ophthalmic composition for the treatment or control of infection” (Bausch & Lomb Incorporated, priority 2008, dated 2013).
Where two headings read alike, the source gives them in different places.

Columns and labels:
Format in all cases: cell-based
Legionella pneumophila = experiment: microbe, parasite or virus in culture
S. epidermidis = experiment: MIC of clinical trial isolates, Studies 373, 433, 434; settings: Staphylococcus epidermidis
[1] = tested on: Staphylococcus epidermidis; experiment: MIC, CLSI broth microdilution, clinical isolates; settings: for MIC50: Staphylococcus epidermidis
Staphylococcus aureus = experiment: MIC, CLSI broth microdilution, clinical isolates; settings: for MIC50 / MIC90: Staphylococcus aureus
Haemophilus influenzae = experiment: MIC, CLSI broth microdilution, clinical isolates; settings: for MIC50 / MIC90: Haemophilus influenzae
[2] = tested on: Staphylococcus haemolyticus; experiment: MIC, CLSI broth microdilution, clinical isolates; settings: Staphylococcus haemolyticus (N = 101)
S. aureus = experiment: MIC of clinical trial isolates, Studies 373, 433, 434; settings: Staphylococcus aureus
[3] = tested on: Staphylococcus lugdunensis; experiment: MIC, CLSI broth microdilution, clinical isolates; settings: Staphylococcus lugdunensis (N = 15)
[4] = tested on: Staphylococcus saprophyticus; experiment: MIC, CLSI broth microdilution, clinical isolates; settings: Staphylococcus saprophyticus (N = 101)
Morganella morganii = experiment: MIC, CLSI broth microdilution, clinical isolates; settings: Morganella morganii (N = 51)
Klebsiella oxytoca = experiment: MIC, CLSI broth microdilution, clinical isolates; settings: Klebsiella oxytoca (N = 50)
Citrobacter koseri = experiment: MIC, CLSI broth microdilution, clinical isolates; settings: Citrobacter koseri (N = 100)
Anaerobic Bacteria = experiment: MIC against anaerobic bacteria (Table 7)
[5] = tested on: Lancefield group C, F, G streptococci; experiment: MIC, CLSI broth microdilution, clinical isolates; settings: G streptococci (N = 50)
Streptococcus pneumoniae = experiment: MIC, CLSI broth microdilution, clinical isolates
Viridans streptococci = experiment: MIC, CLSI broth microdilution, clinical isolates; settings: Viridans streptococci (N = 156)
Staphylococcus warneri = experiment: MIC, CLSI broth microdilution, clinical isolates; settings: Staphylococcus warneri (N = 50)
Staphylococcus hominis = experiment: MIC, CLSI broth microdilution, clinical isolates; settings: Staphylococcus hominis (N = 50)
Streptococcus agalactiae = experiment: MIC, CLSI broth microdilution, clinical isolates; settings: Streptococcus agalactiae (N = 100)
Moraxella catarrhalis = experiment: MIC, CLSI broth microdilution, clinical isolates; settings: Moraxella catarrhalis (N = 101)
Streptococcus pyogenes = experiment: MIC, CLSI broth microdilution, clinical isolates; settings: Streptococcus pyogenes (N = 101)
[6] = Staphylococcus epidermidis (CNS, N = 6)
[7] = Staphylococcus epidermidis (CS, N = 9)
[8] = Staphylococcus epidermidis (MSSE, N = 6)
[9] = Staphylococcus epidermidis (all phenotypes, N = 15)
[10] = Staphylococcus aureus (CNS, N = 16)
[11] = Staphylococcus aureus (CS, N = 14)
[12] = Staphylococcus aureus (all phenotypes, N = 30)
[13] = MRSA, Staphylococcus aureus (MRSA, N = 11)
[14] = MSSA, Staphylococcus aureus (MSSA, N = 19)
[15] = Haemophilus influenzae (all phenotypes, N = 40)
[16] = Haemophilus influenzae (bla negative, N = 24)
[17] = Haemophilus influenzae (bla positive, N = 16)
[18] = Clostridium perfringens, Clostridium perfringens (N = 21)
[19] = Streptococcus pneumoniae (PSSP, N = 31)

N[C@@H]1CCCCN(c2c(F)cc3c(=O)c(C(=O)O)cn(C4CC4)c3c2Cl)C1 [Besifloxacin, (R)-(+)-(3-amino-2,3,4,5,6,7-hexahydro-1H-azepin-1-yl)-8-chloro-1-cyclopropyl-6-fluoro-1,4,-dihydro-4-oxo-3-quinolinecarboxylic acid]
0.12 to 8 µg/mL: MIC Range (Anaerobic Bacteria; Fusobacterium spp. (N = 21))
0.06 to 0.12 µg/mL: MIC Range (Streptococcus pneumoniae; Streptococcus pneumoniae (PISP, N = 2))
0.015 µg/mL: MIC50 (Staphylococcus aureus; [14]) | MIC50 (Staphylococcus aureus; [11]) | MIC50 (Haemophilus influenzae; [15]) | MIC90 (Haemophilus influenzae; [15]) | MIC50 (Haemophilus influenzae; [16]) | MIC90 (Haemophilus influenzae; [16]) | MIC50 (Haemophilus influenzae; [17])
1 µg/mL: MIC90 (S. epidermidis; S. epidermidis MSSE-CR, N 10, read-out: MIC90) | MIC90 [2] | MIC90 (Klebsiella oxytoca) | MIC90 (Anaerobic Bacteria; Bacteroides fragilis, Bacteroides fragilis (N = 20), read-out: MIC90) | MIC50 (Anaerobic Bacteria; Prevotella spp. (N = 20), read-out: MIC50) | MIC90 (Staphylococcus warneri) | MIC90 (Staphylococcus hominis)
0.03 µg/mL: MIC50 (Legionella pneumophila; Legionella pneumophila) | MIC90 (Legionella pneumophila; Legionella pneumophila) | MIC50 [1, 7] | MIC50 [1, 8] | MIC50 [1, 9] | MIC90 (Haemophilus influenzae; [17]) | MIC50 ([5]; read-out: MIC50) | MIC50 (Moraxella catarrhalis) | MIC90 (Moraxella catarrhalis) | MIC50 (Streptococcus pyogenes; read-out: MIC50)
≦0.004-0.03 μg/mL: MIC Range (Haemophilus influenzae; [15]) | MIC Range (Haemophilus influenzae; [16])
4 µg/mL: MIC90 (S. epidermidis; MRSE, S. epidermidis MRSE-CR, N 24, read-out: MIC90) | MIC90 [1, 9] | MIC90 (Staphylococcus aureus; [13]) | MIC90 (Staphylococcus aureus; [10]) | MIC90 (Staphylococcus aureus; [12]) | MIC90 (S. aureus; MRSA, S. aureus MRSA-CR, N 17, read-out: MIC90) | MIC90 (S. aureus; MRSA, Staphylococcus aureus (MRSA-CR), isolates of studies 373, 433, 434, read-out: MIC90) | MIC90 (Morganella morganii) | MIC90 (Anaerobic Bacteria; Prevotella spp. (N = 20), read-out: MIC90)
0.5 µg/mL: MIC90 (S. epidermidis; isolates of studies 373, 433, 434, read-out: MIC90) | MIC50 (Staphylococcus aureus; [13]) | MIC50 [2] | MIC90 (S. aureus; Staphylococcus aureus (all phenotypes), isolates of studies 373, 433, 434, read-out: MIC90) | MIC90 [3] | MIC50 (Anaerobic Bacteria; Bacteroides fragilis, Bacteroides fragilis (N = 20), read-out: MIC50)
0.015 to 0.12 µg/mL: MIC Range (Moraxella catarrhalis)
2 µg/mL: MIC90 (S. aureus; MSSA, S. aureus MSSA-CR, N 17, read-out: MIC90) | MIC90 (S. aureus; MSSA, Staphylococcus aureus (MSSA-CR), isolates of studies 373, 433, 434, read-out: MIC90)
0.015 to 0.03 µg/mL: MIC Range [1, 7]
0.015 to 0.06 µg/mL: MIC Range (Legionella pneumophila; Legionella pneumophila (N = 50))
0.03 to 0.06 µg/mL: MIC Range (Streptococcus pneumoniae; Streptococcus pneumoniae (PRSP, N = 2)) | MIC Range (Streptococcus pyogenes)
0.25 µg/mL: MIC50 ([1]; MRSE, Staphylococcus epidermidis (MRSE, N = 9)) | MIC50 [1, 6] | MIC90 (Staphylococcus aureus; [14]) | MIC50 (Staphylococcus aureus; [10]) | MIC90 (Citrobacter koseri) | MIC50 (Anaerobic Bacteria; [18]) | MIC90 (Anaerobic Bacteria; [18]) | MIC50 (Anaerobic Bacteria; Cutibacterium acnes, Propionibacterium acnes (N = 21), read-out: MIC50) | MIC90 (Anaerobic Bacteria; Cutibacterium acnes, Propionibacterium acnes (N = 21), read-out: MIC90) | MIC50 (Anaerobic Bacteria; Fusobacterium spp. (N = 21), read-out: MIC50) | MIC50 (Staphylococcus hominis)
0.12 to 0.25 µg/mL: MIC Range (Anaerobic Bacteria; Clostridium perfringens (N = 21)) | MIC Range (Anaerobic Bacteria; Propionibacterium acnes (N = 21))
0.06 to 8 µg/mL: MIC Range (Klebsiella oxytoca)
0.015 to 2 µg/mL: MIC Range [3] | MIC Range (Viridans streptococci) | MIC Range (Staphylococcus warneri) | MIC Range (Staphylococcus hominis)
0.03 to 4 µg/mL: MIC Range (Staphylococcus aureus; [10])
0.015 to 0.25 µg/mL: MIC Range [1, 8] | MIC Range (Staphylococcus aureus; [11]) | MIC Range [4] | MIC Range [5]
0.03 to 0.12 µg/mL: MIC Range (Streptococcus agalactiae)
0.06 to 16 µg/mL: MIC Range (Anaerobic Bacteria; Prevotella spp. (N = 20))
0.015 to 4 µg/mL: MIC Range ([1]; Staphylococcus epidermidis (MRSE, N = 9)) | MIC Range [1, 9] | MIC Range (Staphylococcus aureus; Staphylococcus aureus (MRSA, N = 11)) | MIC Range (Staphylococcus aureus; Staphylococcus aureus (MSSA, N = 19)) | MIC Range (Staphylococcus aureus; [12]) | MIC Range [2]
0.008 to 0.03 µg/mL: MIC Range (Haemophilus influenzae; [17])
0.25 to 4 µg/mL: MIC Range [1, 6]
0.12 µg/mL: MIC90 (Staphylococcus aureus; [11]) | MIC50 (Staphylococcus aureus; [12]) | MIC90 [4] | MIC50 (Morganella morganii) | MIC50 (Klebsiella oxytoca) | MIC90 (Viridans streptococci; read-out: MIC90)
0.06 µg/mL: MIC90 (S. epidermidis; MRSE, S. epidermidis MRSE-CS, N 27, read-out: MIC90) | MIC90 (S. epidermidis; S. epidermidis MSSE-CS, N 50, read-out: MIC90) | MIC90 (S. aureus; MRSA, S. aureus MRSA-CS, N 9, read-out: MIC90 (due to limited isolates, highest MIC value is given)) | MIC90 (S. aureus; MSSA, S. aureus MSSA-CS, N 144, read-out: MIC90) | MIC50 [3] | MIC50 [4] | MIC50 (Citrobacter koseri) | MIC90 ([5]; read-out: MIC90) | MIC50 (Streptococcus pneumoniae; [19]) | MIC90 (Streptococcus pneumoniae; [19]) | MIC50 (Streptococcus pneumoniae; Streptococcus pneumoniae (all phenotypes, N = 35), read-out: MIC50) | MIC90 (Streptococcus pneumoniae; Streptococcus pneumoniae (all phenotypes, N = 35), read-out: MIC90) | MIC50 (Viridans streptococci; read-out: MIC50) | MIC50 (Staphylococcus warneri) | MIC50 (Streptococcus agalactiae; read-out: MIC50) | MIC90 (Streptococcus agalactiae; read-out: MIC90) | MIC90 (Streptococcus pyogenes; read-out: MIC90)
0.015 to 0.5 µg/mL: MIC Range (Streptococcus pneumoniae; [19]) | MIC Range (Streptococcus pneumoniae; Streptococcus pneumoniae (all phenotypes, N = 35))
